In general, IC50 refers to the point on the concentration scale where inhibition reaches its midpoint.

Structures are written as SMILES. Read-outs that look alike come from different tables or passages of the source.

Experiment [1] relates to A549 cells. Put plainly: MTT assay (mitochondrial metabolism). The class given is cell-based. The following applies: Homo sapiens, read-out: IC50 MTT assay. From the text: (§1) MTT assay is the most commonly used method for high-throughput identification of the antiproliferative effects of compounds on cultured cells and is indirectly correlated with mitochondria-dependent apoptosis progression[59]–[61]. The production of reducing equivalents such as NADH in metabolically active cells is an indicator of “cell redox activity”, indirectly reflecting the number of viable cells[60],[61] and the mitochondrial metabolic rate in cells[62],[63].
(§2) A549, Caco-2, HepG2 and TelCOFS02MA cells (1 × 10^4 cells/well), and MDA-MB-231 cells (0.5 × 10^4 cells/well) were seeded in 100 µL of fresh medium into 96-well plates (TC-Plate 96 wells, Sarstedt, Verona, Italy) in quadruplicate for 24 h at 37 °C in a humidified atmosphere of 95% air plus 5% CO2. Then, the medium was removed and replaced with 200 µL of media with different concentrations of CBD (5–80 µM, dilution factor [DF] equal to 2) and CBDV (5.5–88 µM, DF = 2) chosen on the basis of range-finding tests (0.5, 5, and 50 mg/L). We chose 1.56–25 mg/L to be tested and, to make easier the comparison between the two cannabinoids activities, the concentrations were reported in [μM]. In all experiments, negative controls (wells containing cells exposed only to the medium) and solvent controls (wells containing cells exposed to 2.5% methanol) were included. The plates were incubated at 37 °C for three exposure times: 24, 48 and 72 h (different plates were prepared for each specific time point). Then, MTT solution (5 mg/mL) was added to each well, and the plates were re-incubated for 4 h at 37 °C. The culture medium was removed, and 2-propanol was used to dissolve formazan crystals. The absorbance of formazan was measured spectrophotometrically at 590 nm using an automated microplate reader (Synergy H1, Biotek, Winooski, USA). The results are reported as the percentages of cells with inhibited proliferation, as determined by the link between the inhibition of mitochondrial metabolic activity and proliferation. The results were calculated with the following formula:1 IC%=1-OD590sample/OD590negativecontrol·100
(§3) Furthermore, IC50 values (concentrations of the sample used to obtain an inhibition of 50% of cell growth/metabolic activity) were calculated.
(§4) All results from five independent experiments are expressed as the IC50 or EC50 as determined by analysis with Prism 5 software (GraphPad Inc., San Diego, CA, USA) and nonlinear regression (log agonist vs. normalized response-variable slope) with a 95% confidence range. Lowest observed adverse effect concentrations (LOAECs) were calculated by one-way ANOVA and Dunnett’s comparison test. Differences compared to the controls were considered significant as follows: *p < 0.05, **p < 0.001 and ***p < 0.0001.

Experiment [2] relates to Hep G2 cells. The experiment is described as follows: MTT assay (mitochondrial metabolism). The following applies: Homo sapiens, read-out: IC50 MTT assay. The class given is cell-based.
Excerpt: as §1, §2, §3, §4
(In general: Formazan colour is commonly taken as a measure of viable cells.)

Experiment [3] has as its system Caco-2 cells. Put plainly: MTT assay (mitochondrial metabolism). The class given is cell-based, human. The following applies: for LOAEC MTT assay: Caco-2, same value after each exposure time (24, 48, 72 h); for IC50: Homo sapiens, read-out: IC50 MTT assay.
Excerpt: as §1, §2, §3, §4

Experiment [4] concerns MDA-MB-231 cells. Put plainly: MTT assay (mitochondrial metabolism). The class given is cell-based, human. The following applies: for IC50: Homo sapiens, read-out: IC50 MTT assay.
Excerpt: as §1, §2, §3, §4

For experiment [5], the system named is TelCOFS02MA cells. Put plainly: MTT assay (mitochondrial metabolism). The class given is cell-based, human. The following applies: for IC50: Homo sapiens, read-out: IC50 MTT assay.
Excerpt: as §1, §2, §3, §4

Experiment [6] concerns A549 cells. The experiment is described as follows: BrdU-ELISA (DNA synthesis inhibition). The class given is cell-based. The following applies: Homo sapiens, read-out: IC50 BrdU-ELISA. The protocol:
(§5) BrdU-ELISA was performed according to the protocol described by Lehmann and collaborators, and the results were used to evaluate the inhibition of DNA synthesis. A total of 1 × 10^4 cells/well were seeded in 100 µL of fresh medium into 96-well plates in triplicate at 37 °C in a humidified atmosphere of 95% air plus 5% CO2 for 24 h. Then, the medium was removed and replaced with 200 µL of medium with the same concentrations of CBD and CBDV that had been used in the previous test. In all experiments, blanks (wells with medium and without cells), negative controls (with only medium) and solvent controls (2.5% methanol) were included. The plates were incubated at 37 °C for 72 h. Then, 20 µL of 100 µM BrdU labelling solution was added to each well and incubated for 2 h at 37 °C. After removing the labelling solution, 200 µl of DNA fixing/denaturing solution was added to each well and incubated for 30 min at room temperature. After its discharge, 100 µL of the anti-BrdU-POD antibody solution [0.075 U/mL] was added to each well and incubated for 90 min at room temperature. After several washing steps with 1X PBS (200–300 µL/well), 100 µl of tetramethylbenzidine (TMB) was added to each well and incubated for 20–30 min (sufficient time for the colour change). The incorporation of BrdU into DNA was quantified spectrophotometrically at 370 nm. […] The mean absorbance of the control cells represented 100% cell proliferation, and the mean absorbance of the treated cells was related to the control values to determine cell sensitivity. Inhibition (%) of DNA synthesis/cell viability was determined as follows:2 IC%=1-OD370sample/OD370negativecontrol·100
(§6) IC50 values (representing the median concentration at which DNA synthesis and cell viability were reduced by 50%) were calculated.
as §4
In general terms: In an ELISA, binding on a coated surface is turned into a signal by an enzyme label.

Experiment [7] relates to MDA-MB-231 cells. Put plainly: BrdU-ELISA (DNA synthesis inhibition). The class given is cell-based. The following applies: Homo sapiens, read-out: IC50 BrdU-ELISA. The protocol:
as §5, §6, §4

The nature of experiment [8]: ABTS assay (radical scavenging). The following applies: for TEAC (Trolox equivalent antioxidant capacity), ABTS: EC50 Trolox/EC50 sample; for ABTS scavenging capacity less than the capacity of Trolox: compared with Trolox. The protocol:
An ABTS assay was performed following the procedure described by Lavorgna et al. 2019[66]. The cationic ABTS radical (ABTS^+) was generated by oxidizing ABTS (7 mM) with potassium persulfate (140 mM K2S2O8), and the mixture was incubated for 12–16 h in the dark. The ABTS^+ working solution was diluted to an absorbance of […] OD at 734 nm. […] Distilled water was used for the blank, Trolox was used for the standard control, and methanol was used for the solvent control.
The results are expressed as the median effective concentration (EC50). Furthermore, Trolox equivalent antioxidant capacity (TEAC) values were calculated following the procedure used by Shimamura end colleagues[68]:5 TEAC=EC50Trolox/EC50sample
as §4

[9] abbreviates: A549, 72 h exposure, 95% confidence interval in brackets.
[10] abbreviates: MDA-MB-231, 72 h exposure, 95% confidence interval in brackets.

For `C=C(C)[C@@H]1CCC(C)=C[C@H]1c1c(O)cc(CCCCC)cc1O` [CBD, Cannabidiol], the IC50 in experiment [1] (setting [9]) turned out to be 27.7 µM; in experiment [2] (HepG2, Hep G2, 72 h exposure, 95% confidence interval in brackets), 15.8 µM; in experiment [3] (Caco-2, 72 h exposure, 95% confidence interval in brackets) it was 35.2 µM; in experiment [4] (setting [10]) it was 25.8 µM; in experiment [5] (TelCOFS02MA, 72 h exposure, 95% confidence interval in brackets), 31.9 µM; in experiment [6] (setting [9]), 40.4 µM. Besides, the IC50 in experiment [7] (setting [10]) was 38.4 µM. For the same compound, the “LOAEC MTT assay” value came out at 20 µM in experiment [3]; 20 µM in experiment [4] (MDA-MB-231, 24 h); 10 µM in experiment [4] (MDA-MB-231, 48 h); 20 µM in experiment [5] (TelCOFS02MA, same value for the entire treatment period (24, 48, 72 h)). In experiment [8], the “TEAC (Trolox equivalent antioxidant capacity), ABTS” value worked out at 0.21. The “ABTS scavenging capacity less than the capacity of Trolox” value in experiment [8] was 79%.

With `C=C(C)[C@@H]1CCC(C)=C[C@H]1c1c(O)cc(CCC)cc1O` [CBDV, cannabidivarin], the IC50 in experiment [1] (A549, 72 h) was found to be 32.9 µM; in experiment [2] (HepG2, 72 h) it was 19.7 µM; in experiment [3] (Caco-2, 72 h), 46 µM; in experiment [4] (MDA-MB-231, 72 h), 38.1 µM; in experiment [5] (72 h), 42.3 µM; in experiment [6] (A549, 72 h), 48.6 µM. For the same compound, the IC50 in experiment [7] (MDA-MB-231, 72 h) worked out at 46.8 µM. Moreover, the “LOAEC MTT assay” value in experiment [3] amounted to 44 µM; in experiment [4] (MDA-MB-231, 24 h), 44 µM; in experiment [4] (MDA-MB-231, 48 h), 22 µM; in experiment [5] (TelCOFS02MA, 24 h), 88 µM; in experiment [5] (TelCOFS02MA, 48 h), 44 µM; in experiment [5] (TelCOFS02MA, 72 h), 11 µM. For the same compound, in experiment [8], the “TEAC (Trolox equivalent antioxidant capacity), ABTS” value was 0.27. Moreover, the “ABTS scavenging capacity less than the capacity of Trolox” value in experiment [8] worked out at 73%.
